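Assay format: 96-well plates, 48-hour exposure. GI50 = concentration required for 50% inhibition of growth. The concentration for full growth arrest is given as TGI.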
Experiments:
Assay in all cases: DTP human tumour cell line panel, 48 h
786-0 renal = test system: 786-0 renal
A498 renal = test system: A498 renal
A549 NSCLC = test system: A549 NSCLC
ACHN renal = test system: ACHN renal
BT-549 breast = test system: BT-549 breast
CAKI-1 renal = test system: CAKI-1 renal
CCRF-CEM leukemia = test system: CCRF-CEM leukemia
COLO 205 colon = test system: COLO 205 colon
DU-145 prostate = test system: DU-145 prostate
HCC-2998 colon = test system: HCC-2998 colon
HCT-116 colon = test system: HCT-116 colon
HCT-15 colon = test system: HCT-15 colon
HL-60(TB) leukemia = test system: HL-60(TB) leukemia
HOP-62 NSCLC = test system: HOP-62 NSCLC
HOP-92 NSCLC = test system: HOP-92 NSCLC
HS 578T breast = test system: HS 578T breast
HT29 colon = test system: HT29 colon
IGROV1 ovarian = test system: IGROV1 ovarian
K-562 leukemia = test system: K-562 leukemia
KM12 colon = test system: KM12 colon
LOX IMVI melanoma = test system: LOX IMVI melanoma
M14 melanoma = test system: M14 melanoma
MALME-3M melanoma = test system: MALME-3M melanoma
MCF7 breast = test system: MCF7 breast
MDA-MB-231 breast = test system: MDA-MB-231 breast
MDA-MB-435 = test system: MDA-MB-435
MOLT-4 leukemia = test system: MOLT-4 leukemia
NCI-H226 lung = test system: NCI-H226 lung
NCI-H23 lung = test system: NCI-H23 lung
NCI-H460 lung = test system: NCI-H460 lung
NCI-H522 lung = test system: NCI-H522 lung
NCI/ADR-RES ovarian = test system: NCI/ADR-RES ovarian
OVCAR-3 ovarian = test system: OVCAR-3 ovarian
OVCAR-4 ovarian = test system: OVCAR-4 ovarian
OVCAR-5 ovarian = test system: OVCAR-5 ovarian
OVCAR-8 ovarian = test system: OVCAR-8 ovarian
PC-3 prostate = test system: PC-3 prostate
RPMI-8226 leukemia = test system: RPMI-8226 leukemia
RXF 393 renal = test system: RXF 393 renal
SF-268 CNS = test system: SF-268 CNS
SF-295 CNS = test system: SF-295 CNS
SF-539 CNS = test system: SF-539 CNS
SK-MEL-2 melanoma = test system: SK-MEL-2 melanoma
SK-MEL-28 melanoma = test system: SK-MEL-28 melanoma
SK-MEL-5 melanoma = test system: SK-MEL-5 melanoma
SK-OV-3 ovarian = test system: SK-OV-3 ovarian
SN12C renal = test system: SN12C renal
SNB-19 CNS = test system: SNB-19 CNS
SNB-75 CNS = test system: SNB-75 CNS
SR leukemia = test system: SR leukemia
SW-620 colon = test system: SW-620 colon
T-47D breast = test system: T-47D breast
TK-10 renal = test system: TK-10 renal
U251 CNS = test system: U251 CNS
UACC-257 melanoma = test system: UACC-257 melanoma
UACC-62 melanoma = test system: UACC-62 melanoma
UO-31 renal = test system: UO-31 renal

For Cc1cc(Nc2nc(-c3ccc(F)cc3)nc3ccccc23)n[nH]1, the GI50 (786-0 renal) was 1.99 µM, the TGI (786-0 renal) was 38.1 µM and the GI50 (A498 renal) was 0.371 µM. For the same compound, the TGI (A498 renal) was 5.21 µM, the GI50 (A549 NSCLC) was 1.77 µM and the TGI (A549 NSCLC) was 18.1 µM. The GI50 (ACHN renal) was 0.818 µM, the TGI (ACHN renal) was 39.5 µM and the GI50 (BT-549 breast) was 7.3 µM. It also gave a TGI (BT-549 breast) of 21.6 µM, a GI50 (CAKI-1 renal) of 0.453 µM and a TGI (CAKI-1 renal) of 17.6 µM. For the same compound, the GI50 (CCRF-CEM leukemia) was 8.55 µM, the TGI (CCRF-CEM leukemia) was 39.6 µM and the GI50 (COLO 205 colon) was 1.35 µM. For the same compound, the TGI (COLO 205 colon) was 3.35 µM, the GI50 (DU-145 prostate) was 6.44 µM and the TGI (DU-145 prostate) was > 48.9 µM. The GI50 (HCC-2998 colon) was 5.24 µM, the TGI (HCC-2998 colon) was 25.4 µM and the GI50 (HCT-116 colon) was 0.76 µM. It also gave a TGI (HCT-116 colon) of 15.5 µM, a GI50 (HCT-15 colon) of 0.673 µM and a TGI (HCT-15 colon) of 33.9 µM. It also gave a GI50 (HL-60(TB) leukemia) of 2.78 µM, a TGI (HL-60(TB) leukemia) of 34.8 µM and a GI50 (HOP-62 NSCLC) of 4.76 µM. For the same compound, the TGI (HOP-62 NSCLC) was 20.3 µM, the GI50 (HOP-92 NSCLC) was 0.72 µM and the TGI (HOP-92 NSCLC) was 8.64 µM. It also gave a GI50 (HS 578T breast) of 0.842 µM, a TGI (HS 578T breast) of 7.54 µM and a GI50 (HT29 colon) of 0.691 µM. For the same compound, the TGI (HT29 colon) was 7.5 µM, the GI50 (IGROV1 ovarian) was 0.983 µM and the TGI (IGROV1 ovarian) was 9.17 µM. For the same compound, the GI50 (K-562 leukemia) was 3.91 µM, the TGI (K-562 leukemia) was 24.1 µM and the GI50 (KM12 colon) was 0.0631 µM. The TGI (KM12 colon) was 12 µM, the GI50 (LOX IMVI melanoma) was 1.05 µM and the TGI (LOX IMVI melanoma) was 11.2 µM. The GI50 (M14 melanoma) was 0.748 µM, the TGI (M14 melanoma) was 19.4 µM and the GI50 (MALME-3M melanoma) was 16.4 µM. The TGI (MALME-3M melanoma) was 31.8 µM, the GI50 (MCF7 breast) was 2.79 µM and the TGI (MCF7 breast) was 18.8 µM. The GI50 (MDA-MB-231 breast) was 9.15 µM, the TGI (MDA-MB-231 breast) was 26.8 µM and the GI50 (MDA-MB-435) was 1.65 µM. The TGI (MDA-MB-435) was 16.2 µM, the GI50 (MOLT-4 leukemia) was 10.1 µM and the TGI (MOLT-4 leukemia) was 35.1 µM. It also gave a GI50 (NCI-H226 lung) of 3.36 µM, a TGI (NCI-H226 lung) of 18 µM and a GI50 (NCI-H23 lung) of 5.74 µM. It also gave a TGI (NCI-H23 lung) of 24.9 µM, a GI50 (NCI-H460 lung) of 3.17 µM and a TGI (NCI-H460 lung) of 21 µM. For the same compound, the GI50 (NCI-H522 lung) was 3.44 µM, the TGI (NCI-H522 lung) was 18.8 µM and the GI50 (NCI/ADR-RES ovarian) was 4.5 µM. The TGI (NCI/ADR-RES ovarian) was 52.2 µM, the GI50 (OVCAR-3 ovarian) was 4.9 µM and the TGI (OVCAR-3 ovarian) was 31.6 µM. It also gave a GI50 (OVCAR-4 ovarian) of 3.2 µM, a TGI (OVCAR-4 ovarian) of 27.8 µM and a GI50 (OVCAR-5 ovarian) of 10.1 µM. It also gave a TGI (OVCAR-5 ovarian) of 34.5 µM, a GI50 (OVCAR-8 ovarian) of 7.28 µM and a TGI (OVCAR-8 ovarian) of 36.9 µM. The GI50 (PC-3 prostate) was 2.26 µM, the TGI (PC-3 prostate) was 21.4 µM and the GI50 (RPMI-8226 leukemia) was 9.22 µM. The TGI (RPMI-8226 leukemia) was 39.1 µM, the GI50 (RXF 393 renal) was 0.757 µM and the TGI (RXF 393 renal) was 5.09 µM. It also gave a GI50 (SF-268 CNS) of 3.85 µM, a TGI (SF-268 CNS) of 24.5 µM and a GI50 (SF-295 CNS) of 5.36 µM. For the same compound, the TGI (SF-295 CNS) was 21.2 µM, the GI50 (SF-539 CNS) was 2.81 µM and the TGI (SF-539 CNS) was 15.4 µM. For the same compound, the GI50 (SK-MEL-2 melanoma) was 0.811 µM, the TGI (SK-MEL-2 melanoma) was 16 µM and the GI50 (SK-MEL-28 melanoma) was 8.46 µM. It also gave a TGI (SK-MEL-28 melanoma) of 21.7 µM, a GI50 (SK-MEL-5 melanoma) of 7.4 µM and a TGI (SK-MEL-5 melanoma) of 20.3 µM. For the same compound, the GI50 (SK-OV-3 ovarian) was 0.855 µM, the TGI (SK-OV-3 ovarian) was 41.8 µM and the GI50 (SN12C renal) was 3.1 µM. The TGI (SN12C renal) was 25.2 µM, the GI50 (SNB-19 CNS) was 8.48 µM and the TGI (SNB-19 CNS) was > 93.9 µM. For the same compound, the GI50 (SNB-75 CNS) was 0.469 µM, the TGI (SNB-75 CNS) was 7.42 µM and the GI50 (SR leukemia) was 1.34 µM. For the same compound, the TGI (SR leukemia) was 38.4 µM, the GI50 (SW-620 colon) was 2.1 µM and the TGI (SW-620 colon) was 15.7 µM. The GI50 (T-47D breast) was 1.92 µM, the TGI (T-47D breast) was 11.8 µM and the GI50 (TK-10 renal) was 1.25 µM. For the same compound, the TGI (TK-10 renal) was 33.4 µM, the GI50 (U251 CNS) was 1.75 µM and the TGI (U251 CNS) was 21.4 µM. The GI50 (UACC-257 melanoma) was 10 µM, the TGI (UACC-257 melanoma) was 22.7 µM and the GI50 (UACC-62 melanoma) was 3.96 µM. For the same compound, the TGI (UACC-62 melanoma) was 19.6 µM, the GI50 (UO-31 renal) was 0.574 µM and the TGI (UO-31 renal) was 15 µM.

From PubChem BioAssay (NCI)
